For 30 compounds, IC50 results are on record in patent publication US9051290B2, “Biaryl phosphodiesterase inhibitors” (LEO PHARMA A/S, priority 2010, dated 2015).

The assay addresses Human recombinant PDE4 (Genbank accession no NM—006203) (Homo sapiens, UniProt Q08499). Nature of the assay: PDE4 assay (SPA, cleavage of cAMP). Type of assay: biochemical. Particulars: 1 hour incubation, test compound up to 10 μM, cAMP 1×10^−5M, read-out: PDE4 IC50 range. As for the experimental part:
Human recombinant PDE4 (Genbank accession no NM_006203) was incubated for 1 hour with the test compound at concentrations up to 10 μM, with cAMP (1×10^−5M), and with a low amount (0.021 MBq) of radioactively labelled cAMP. At the end of the incubation, the cleavage of the substrate was evaluated by the binding of the AMP product to SPA beads, which generate chemoluminescence when bound to the radioactive tracer. The AMP product inhibited the binding of the radioactive tracer to the beads, and the luminescent signal was competed.
The results were calculated as the molar concentrations resulting in 50% inhibition of the substrate cleavage compared to controls samples, and are expressed as a range of IC50 (M).
The compounds of the present invention were tested in the PDE4 assay.

Chain of Human recombinant PDE4 (Genbank accession no NM—006203) (Q08499 1-673 isoform Q08499-2): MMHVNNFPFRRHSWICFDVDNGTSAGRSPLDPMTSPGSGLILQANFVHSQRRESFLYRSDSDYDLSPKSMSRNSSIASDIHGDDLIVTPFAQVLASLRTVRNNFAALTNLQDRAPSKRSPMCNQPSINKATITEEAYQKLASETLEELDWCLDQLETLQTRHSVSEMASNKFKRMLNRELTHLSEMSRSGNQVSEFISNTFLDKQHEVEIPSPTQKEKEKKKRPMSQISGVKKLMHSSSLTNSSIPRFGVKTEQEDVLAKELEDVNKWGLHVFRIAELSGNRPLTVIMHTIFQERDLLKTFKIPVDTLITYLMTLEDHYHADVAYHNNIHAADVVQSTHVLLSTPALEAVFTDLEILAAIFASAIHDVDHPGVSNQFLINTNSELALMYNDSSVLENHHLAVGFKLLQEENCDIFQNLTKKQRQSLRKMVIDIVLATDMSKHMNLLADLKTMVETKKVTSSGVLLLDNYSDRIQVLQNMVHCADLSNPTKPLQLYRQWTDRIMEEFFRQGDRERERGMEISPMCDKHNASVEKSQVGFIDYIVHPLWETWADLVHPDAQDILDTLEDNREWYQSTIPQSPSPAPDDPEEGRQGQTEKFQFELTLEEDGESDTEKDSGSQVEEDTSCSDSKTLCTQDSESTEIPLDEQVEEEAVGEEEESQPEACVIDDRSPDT

For `COc1ccc(-c2cccc3c2CCC3=O)c(OCCC(C)C)c1OC` [Compound 101, 4-[3,4-Dimethoxy-2-(3-methyl-butoxy)-phenyl]-indan-1-one], the IC50 – broadly, the midpoint of a concentration-inhibition curve – is less than 100 nM.

Take `COc1ccc(-c2cccc3c2CCC3=O)c(OCC2CCC2)c1OC` [Compound 102, 4-(2-Cyclobutylmethoxy-3,4-dimethoxy-phenyl)-indan-1-one]: the IC50 is less than 100 nM.

In the case of `COc1ccc(-c2cccc3c2CCC3=O)c(OCc2ccc(S(C)(=O)=O)cc2)c1OC` [Compound 103, 4-[2-(4-Methanesulfonyl-benzyloxy)-3,4-dimethoxy-phenyl]-indan-1-one], the IC50 was less than 100 nM.

Consider `COc1ccc(-c2cccc3c2CCC3=O)c(OCC2(CO)COC2)c1OC` [Compound 104, 4-[2-(3-Hydroxymethyl-oxetan-3-ylmethoxy)-3,4-dimethoxy-phenyl]-indan-1-one], for which the IC50 is less than 100 nM.

On to `COc1ccc(-c2cccc3c2CCC3=O)c(OCCC(C)(C)C)c1OC` [Compound 105, 4-[2-(3,3-Dimethyl-butoxy)-3,4-dimethoxy-phenyl]-indan-1-one], for which the IC50 was less than 100 nM.

With `COc1ccc(-c2cccc3c2CCC3=O)c(OCc2ccc(C(N)=O)cc2)c1OC` [Compound 106, 4-[2,3-Dimethoxy-6-(1-oxo-indan-4-yl)-phenoxymethyl]-benzamide], the IC50 was less than 100 nM.

Regarding `COc1ccc(-c2cccc3c2CCC3=O)c(OCC(C)(C)CO)c1OC` [Compound 107, 4-[2-(3-Hydroxy-2,2-dimethyl-propoxy)-3,4-dimethoxy-phenyl]-indan-1-one], the IC50 was less than 100 nM.

As to `CNC(=O)c1ccc(COc2c(-c3cccc4c3CCC4=O)ccc(OC)c2OC)cc1` [Compound 108, 4-[2,3-Dimethoxy-6-(1-oxo-indan-4-yl)-phenoxymethyl]-N-methyl-benzamide], the IC50 was less than 100 nM.

As to `COc1ccc(-c2cccc3c2CCC3=O)c(OCc2ccc(C(=O)N(C)C)cc2)c1OC` [Compound 109, 4-[2,3-Dimethoxy-6-(1-oxo-indan-4-yl)-phenoxymethyl]-N,N-dimethyl-benzamide], the IC50 was less than 100 nM.

For the compound `COc1ccc(-c2cccc3c2CCC3=O)c(OCc2cccc(C(=O)N(C)C)c2)c1OC` [Compound 110, 3-[2,3-Dimethoxy-6-(1-oxo-indan-4-yl)-phenoxymethyl]-N,N-dimethyl-benzamide], the IC50 was less than 100 nM.

Take `COc1ccc(-c2cccc3c2CCC3=O)c(OCc2cccc(S(=O)(=O)N(C)C)c2)c1OC` [Compound 111, 3-[2,3-Dimethoxy-6-(1-oxo-indan-4-yl)-phenoxymethyl]-N,N-dimethyl-benzenesulfonamide]: the IC50 was less than 100 nM.

As to `COc1ccc(-c2cccc3c2CCC3=O)c(OCc2ccc(S(N)(=O)=O)cc2)c1OC` [Compound 112, 4-[2,3-Dimethoxy-6-(1-oxo-indan-4-yl)-phenoxymethyl]-benzenesulfonamide], the IC50 is less than 100 nM.

As to `COc1ccc(-c2cccc3c2CCC3=O)c(OCc2cccc(S(C)(=O)=O)c2)c1OC` [Compound 113, 4-[2-(3-Methanesulfonyl-benzyloxy)-3,4-dimethoxy-phenyl]-indan-1-one], the IC50 is less than 100 nM.

On to `COc1ccc(-c2cccc3c2CCC3=O)c(OCc2cccc(C(N)=O)c2)c1OC` [Compound 114, 3-[2,3-Dimethoxy-6-(1-oxo-indan-4-yl)-phenoxymethyl]-benzamide], for which the IC50 was less than 100 nM.

As to `COc1ccc(-c2cccc3c2COC3=O)c(OCc2ccc(S(C)(=O)=O)cc2)c1OC` [Compound 115, 4-[2-(4-Methanesulfonyl-benzyloxy)-3,4-dimethoxy-phenyl]-3H-isobenzofuran-1-one], the IC50 is less than 100 nM.

Consider `COc1ccc(-c2cccc3c2COC3=O)c(OCc2ccc(C(N)=O)cc2)c1OC` [Compound 116, 4-[2,3-Dimethoxy-6-(1-oxo-1,3-dihydro-isobenzofuran-4-yl)-phenoxymethyl]-benzamide], for which the IC50 was less than 100 nM.

For `CNC(=O)c1ccc(COc2c(-c3cccc4c3COC4=O)ccc(OC)c2OC)cc1` [Compound 117, 4-[2,3-Dimethoxy-6-(1-oxo-1,3-dihydro-isobenzofuran-4-yl)-phenoxymethyl]-N-methyl-benzamide], the IC50 was less than 100 nM.

For the compound `COc1ccc(-c2cccc3c2COC3=O)c(OCc2ccc(C(=O)N(C)C)cc2)c1OC` [Compound 118, 4-[2,3-Dimethoxy-6-(1-oxo-1,3-dihydro-isobenzofuran-4-yl)-phenoxymethyl]-N,N-dimethyl-benzamide], the IC50 is less than 100 nM.

On to `COc1ccc(-c2cccc3c2COC3=O)c(OCC2(CO)COC2)c1OC` [Compound 119, 4-[2-(3-Hydroxymethyl-oxetan-3-ylmethoxy)-3,4-dimethoxy-phenyl]-3H-isobenzofuran-1-one], for which the IC50 was 100 to 500 nM.

Take `COc1ccc(-c2ccc3c(c2)CCC3=O)c(OCCC(C)C)c1OC` [Compound 120, 5-[3,4-Dimethoxy-2-(3-methyl-butoxy)-phenyl]-indan-1-one]: the IC50 was less than 100 nM.

As for `COc1ccc(-c2ccc3c(c2)CCC3=O)c(OCC(C)(C)C)c1OC` [Compound 121, 5-[2-(2,2-Dimethyl-propoxy)-3,4-dimethoxy-phenyl]-indan-1-one], the IC50 is less than 100 nM.

Regarding `COc1ccc(-c2ccc3c(c2)CCC3=O)c(OCC2CCC2)c1OC` [Compound 122, 5-(2-Cyclobutylmethoxy-3,4-dimethoxy-phenyl)-indan-1-one], the IC50 was less than 100 nM.

In the case of `COc1ccc(-c2ccc3c(c2)CCC3=O)c(OCCC(C)(C)C)c1OC` [Compound 123, 5-[2-(3,3-Dimethyl-butoxy)-3,4-dimethoxy-phenyl]-indan-1-one], the IC50 was less than 100 nM.

Take `COc1ccc(-c2ccc3c(c2)CCC3=O)c(OCc2ccc(C(N)=O)cc2)c1OC` [Compound 124, 4-[2,3-Dimethoxy-6-(1-oxo-indan-5-yl)-phenoxymethyl]-benzamide]: the IC50 was less than 100 nM.

For `COc1ccc(-c2ccc3c(c2)CCC3=O)c(OCC(C)(C)CO)c1OC` [Compound 125, 5-[2-(3-Hydroxy-2,2-dimethyl-propoxy)-3,4-dimethoxy-phenyl]-indan-1-one], the IC50 was less than 100 nM.

As to `CNC(=O)c1ccc(COc2c(-c3ccc4c(c3)CCC4=O)ccc(OC)c2OC)cc1` [Compound 126, 4-[2,3-Dimethoxy-6-(1-oxo-indan-5-yl)-phenoxymethyl]-N-methyl-benzamide], the IC50 is less than 100 nM.

On to `COc1ccc(-c2ccc3c(c2)CCC3=O)c(OCc2ccc(C(=O)N(C)C)cc2)c1OC` [Compound 127, 4-[2,3-Dimethoxy-6-(1-oxo-indan-5-yl)-phenoxymethyl]-N,N-dimethyl-benzamide], for which the IC50 was less than 100 nM.

For the compound `COc1ccc(-c2ccc3c(c2)CCC3=O)c(OCc2cccc(C(=O)N(C)C)c2)c1OC` [Compound 128, 3-[2,3-Dimethoxy-6-(1-oxo-indan-5-yl)-phenoxymethyl]-N,N-dimethyl-benzamide], the IC50 was less than 100 nM.

Regarding `COc1ccc(-c2ccc3c(c2)CCC3=O)c(OCC2(CO)COC2)c1OC` [Compound 129, 5-[2-(3-Hydroxymethyl-oxetan-3-ylmethoxy)-3,4-dimethoxy-phenyl]-indan-1-one], the IC50 fell in the range of 100 to 500 nM.

As for `COc1ccc(-c2ccc3c(c2)CCC3=O)c(OCc2ccc(S(C)(=O)=O)cc2)c1OC` [Compound 130, 5-[2-(4-Methanesulfonyl-benzyloxy)-3,4-dimethoxy-phenyl]-indan-1-one], the IC50 was less than 100 nM.
